The assay addresses T1, MJ0408 (MptD, archaeal DHNA) (Methanocaldococcus jannaschii, UniProt Q57851).
T1 sequence (Q57851 1-121): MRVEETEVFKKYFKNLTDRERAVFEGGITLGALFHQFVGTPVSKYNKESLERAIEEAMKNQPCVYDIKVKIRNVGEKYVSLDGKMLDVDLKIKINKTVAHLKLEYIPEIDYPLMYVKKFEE
The experiment in a line: HPLC fluorescence after iodine oxidation. In kind it is biochemical. As to conditions: 110 uM H2Neo, 8 mM MgCl2, 16 mM DTT, TES/KCl pH 7.4, 70 °C, argon.

As to `Nc1nc2c(c(=O)[nH]1)N=C(CO)CN2` [6-HMD, 6-hydroxymethyl-7,8-dihydropterin], the “HPLC fluorescence after iodine oxidation” value is “it was found to catalyze the formation of 6-HMD from H2Neo”.
To `Nc1nc2c(c(=O)[nH]1)N=C([C@H](O)[C@H](O)CO)CN2` [H2Neo, 7,8-dihydroneopterin] belongs “it was found to catalyze the formation of 6-HMD from H2Neo”.

These data come from paper PMC3500442 (ACS Chemical Biology, 2012).
